These results are taken from PubChem BioAssay AID2080 (NMMLSC, 2009).

As a reminder, the EC50 is the concentration that produces a half-maximal response.

The structures appear in SMILES notation. Active and inactive are the calls of the source. The rule behind the calls is not given here.

Chain of Bcl-2-related protein A1 (Homo sapiens) (Q16548 whole entry, looked up): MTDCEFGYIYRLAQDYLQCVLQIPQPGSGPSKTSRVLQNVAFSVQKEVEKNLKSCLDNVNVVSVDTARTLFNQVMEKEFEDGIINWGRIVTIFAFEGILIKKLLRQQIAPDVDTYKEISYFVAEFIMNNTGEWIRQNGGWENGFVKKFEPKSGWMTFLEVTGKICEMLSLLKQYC

The first test addresses Bcl-2-related protein A1 (Homo sapiens) (UniProt Q16548). In words: inhibitors of Bim binding to Bfl-1, confirmation, biochemical, multiplexed, bead-based flow cytometry, HTS hits (AID 2080). The settings on record: Bim peptide-Bfl-1 binding.
`COc1ccc(N2C(=O)C(Cl)=C(NC3C(=O)N(c4ccccc4)N(C)C3C)C2=O)cc1` (stereo not drawn): the EC50 is 1.24 µM.

The test is the same for the next values; noted with them: Bim peptide-Bfl-1 binding, at 100 µM (top of the series).
Take `COc1cc(CNc2ccc3[nH]c(=O)[nH]c3c2)cc(Br)c1OCC(=O)NC(C)(C)C`: the inhibition of binding entry was “inactive”.
Same read-out and setting: under `CCN(CC)C(=O)COC(=O)c1cc(-c2ccco2)nc2ccccc12` stands “inactive”.
Consider `Cc1ccc(-c2nc3c(c(=O)[nH]c(=O)n3Cc3ccccc3)n2C)o1`, for which the inhibition of binding entry is “inactive”.
As for `O=c1c2c(n3nnnc3n1Cc1ccccc1)-c1ccccc1CC21CCCC1`, the inhibition of binding entry was “inactive”.
On the same count and under the same terms, with `CCN(CC)c1ccc(NC(=O)COc2ccccc2C)cc1S(=O)(=O)Nc1ccccc1OC` the entry was “inactive”.
The same measure, in the same setting: with `CNC1CCC(Br)CC(C(=O)/C=C/c2cccc(OC)c2OC)C1=O` (stereo not drawn) the entry was “inactive”; with `O=C1NC(=O)C2(Cc3c(nc4ccccn4c3=O)N3CCCCCC32)C(=O)N1Cc1ccccc1` (stereo not drawn), “inactive”.
Same read-out and setting: with `O=C1c2ccccc2C(=O)N1CN(C(=O)COc1ccc(Cl)cc1Cl)c1cccc(F)c1` the entry was “inactive”; with `O=C(/C=C/c1ccc(-c2ccccc2[N+](=O)[O-])o1)c1ccccc1`, “inactive”.
Consider `Cc1ccc(-c2cc(C(=O)Nc3nccs3)c3ccccc3n2)o1`, for which the inhibition of binding entry was “inactive”.
The same measure, in the same setting: under `Cc1ccc(C=NNC(=O)CSc2nnc(-c3ccc(Cl)cc3)n2-c2ccccc2)o1` stands “inactive”; under `CCOc1ccccc1CNc1ccc(O)cc1`, “inactive”.
